Reference: ChEMBL document CHEMBL4000195, “Design and synthesis of novel 7-aminosubstituted pyrido[2,3-b]pyrazines exhibiting anti-breast cancer activity” (Eur J Med Chem, 2017)
Activity calls are given as the source filed them. The calls are words filed in the database; no cut-off is given here.

Key:
MCF7 [1] = assay: Cytotoxicity against human MCF7 cells at 5 uM by MTT assay; format: functional
[2] = target: Dual specificity tyrosine-phosphorylation-regulated kinase 1A (Rattus norvegicus) (UniProt Q63470); assay: Inhibition of rat DYRK1A using myelin basic protein as substrate in presence of [gamma33P]ATP after 30 mins by scintillation counting method
[3] = target: Platelet-derived growth factor receptor beta (Homo sapiens) (UniProt P09619); assay: Inhibition of recombinant human GST-tagged PDGFR-beta (557-end residues) transphosphorylation activity expressed in baculovirus infected Sf9 cells using poly[Glu:Tyr] (4:1) as substrate after 60 mins
[4] = target: Cyclin-dependent kinase 5/CDK5 activator 1 (Homo sapiens) (UniProt Q00535+Q15078); assay: Inhibition of human CDK5/p25 using histone H1 as substrate in presence of [gamma33P]ATP after 30 mins by scintillation counting method; format: protein-complex assay
[5] = target: Receptor-interacting serine/threonine-protein kinase 3 (Homo sapiens) (UniProt Q9Y572); assay: Inhibition of human RIPK3
[6] = AUC (0 to 8 hrs) in NOD/SCID mouse at 0.5 mg/kg, ip administered as single dose by LC-MS/MS method; format: ADME, organism-based; set-up: dose 0.5 mg/kg, time < 8 hr, route intraperitoneal; conditions: in vivo
Mus musculus [7] = assay: Toxicity in NOD/SCID mouse assessed as phenotypic changes at 0.5 mg/kg, ip administered as single dose; format: organism-based; conditions: in vivo
Mus musculus [8] = assay: Toxicity in NOD/SCID mouse assessed as phenotypic changes at 0.5 mg/kg, po administered as single dose; format: organism-based; conditions: in vivo
MDA-MB-231 [9] = assay: Cytotoxicity against human MDA-MB-231 cells at 5 uM by MTT assay; format: functional
HCC1954 [10] = assay: Cytotoxicity against human HCC1954 cells at 10 uM by MTT assay; format: functional
[11] = Cmax in NOD/SCID mouse at 0.5 mg/kg, ip administered as single dose by LC-MS/MS method; format: ADME, organism-based; set-up: dose 0.5 mg/kg, route intraperitoneal; conditions: in vivo
SK-BR-3 = assay: Cytotoxicity against human SKBR3 cells by MTT assay; format: functional, cell-based
[12] = target: Receptor-type tyrosine-protein kinase FLT3 (Homo sapiens) (UniProt P36888); assay: Inhibition of recombinant human GST-tagged FLT3 (571 to 993 residues) transphosphorylation activity expressed in baculovirus infected Sf9 cells using poly[Glu:Tyr] (4:1) as substrate after 60 mins
[13] = target: Dual specificity protein kinase CLK1 (Mus musculus) (UniProt P22518); assay: Inhibition of mouse CLK1
MCF7 [14] = assay: Cytotoxicity against human MCF7 cells at 10 uM by MTT assay; format: functional
[15] = Tmax in NOD/SCID mouse at 0.5 mg/kg, ip administered as single dose by LC-MS/MS method; format: ADME, organism-based; conditions: in vivo
[16] = target: Vascular endothelial growth factor receptor 2 (Homo sapiens) (UniProt P35968); assay: Inhibition of recombinant human GST-tagged VEGFR-2 (789-end residues) transphosphorylation activity expressed in baculovirus infected Sf9 cells using poly[Glu:Tyr] (4:1) as substrate after 60 mins
T47D [17] = assay: Cytotoxicity against human T47D cells at 10 uM by MTT assay; format: functional
MCF7 [18] = assay: Cytotoxicity against human MCF7 cells by MTT assay; format: functional, cell-based
[19] = target: Aurora kinase B/Inner centromere protein (Homo sapiens) (UniProt Q96GD4+Q9NQS7); assay: Inhibition of human AURKB/INCENP; format: protein-complex assay
[20] = Tmax in NOD/SCID mouse at 0.5 mg/kg, po administered as single dose by LC-MS/MS method; format: ADME, organism-based; conditions: in vivo
[21] = target: Glycogen synthase kinase-3 (Sus scrofa) (UniProt B2LUN4+I6LNT8); assay: Inhibition of pig GSK3alpha/beta using GS-1 as substrate in presence of [gamma33P]ATP after 30 mins by scintillation counting method
HCC1954 [22] = assay: Cytotoxicity against human HCC1954 cells by MTT assay; format: functional, cell-based
[23] = target: Mast/stem cell growth factor receptor Kit (Homo sapiens) (UniProt P10721); assay: Inhibition of recombinant human GST-tagged KIT (544-end residues) transphosphorylation activity expressed in baculovirus infected Sf9 cells using poly[Glu:Tyr] (4:1) as substrate after 60 mins
[24] = AUC (0 to 8 hrs) in NOD/SCID mouse at 0.5 mg/kg, po administered as single dose by LC-MS/MS method; format: ADME, organism-based; set-up: time < 8 hr, dose 0.5 mg/kg, route oral; conditions: in vivo
[25] = Cmax in NOD/SCID mouse at 0.5 mg/kg, po administered as single dose by LC-MS/MS method; format: ADME, organism-based; set-up: dose 0.5 mg/kg, route oral; conditions: in vivo
T47D [26] = assay: Cytotoxicity against human T47D cells by MTT assay; format: functional, cell-based
T47D [27] = assay: Cytotoxicity against human T47D cells at 5 uM by MTT assay; format: functional
MDA-MB-231 [28] = assay: Cytotoxicity against human MDA-MB-231 cells by MTT assay; format: functional, cell-based
[29] = target: T1, Serine/threonine-protein kinase haspin (Homo sapiens) (UniProt Q8TF76); assay: Inhibition of human HASPIN
T1 sequence (whole entry): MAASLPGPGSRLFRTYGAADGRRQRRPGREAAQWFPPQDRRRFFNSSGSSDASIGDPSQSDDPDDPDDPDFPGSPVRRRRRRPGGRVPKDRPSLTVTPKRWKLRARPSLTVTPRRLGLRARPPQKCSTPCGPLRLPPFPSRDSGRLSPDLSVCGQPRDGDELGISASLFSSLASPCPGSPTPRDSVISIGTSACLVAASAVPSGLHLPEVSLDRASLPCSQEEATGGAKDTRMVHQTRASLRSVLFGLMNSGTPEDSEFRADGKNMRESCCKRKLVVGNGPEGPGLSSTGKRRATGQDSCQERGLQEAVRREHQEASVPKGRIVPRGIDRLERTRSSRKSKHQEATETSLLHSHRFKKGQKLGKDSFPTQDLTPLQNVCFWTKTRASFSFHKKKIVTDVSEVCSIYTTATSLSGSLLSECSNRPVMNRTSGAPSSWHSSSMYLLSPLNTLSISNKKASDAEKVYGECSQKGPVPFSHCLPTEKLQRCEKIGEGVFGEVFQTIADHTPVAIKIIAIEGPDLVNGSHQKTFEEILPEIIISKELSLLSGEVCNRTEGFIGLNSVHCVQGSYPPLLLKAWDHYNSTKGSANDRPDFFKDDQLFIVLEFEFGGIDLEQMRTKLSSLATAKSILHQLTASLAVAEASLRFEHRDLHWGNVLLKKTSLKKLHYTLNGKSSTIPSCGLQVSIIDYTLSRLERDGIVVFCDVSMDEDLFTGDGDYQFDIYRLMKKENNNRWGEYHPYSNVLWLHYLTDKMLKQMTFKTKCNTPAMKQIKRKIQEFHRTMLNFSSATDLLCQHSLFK

Sus scrofa = species on record: Sus scrofa; assay: Inhibition of pig CK1delta/epsilon
HCC1954 [30] = assay: Cytotoxicity against human HCC1954 cells at 5 uM by MTT assay; format: functional
[31] = target: Phosphatidylinositol 4,5-bisphosphate 3-kinase catalytic subunit alpha isoform (Homo sapiens, UniProt P42336); assay: Inhibition of PI3Kalpha catalytic domain (unknown origin) using PIP2 liposomes as substrate in presence of biotin-labeled PIP3 and GST-GRP1-PH by streptavidin-HRP based assays
MDA-MB-231 [32] = assay: Cytotoxicity against human MDA-MB-231 cells at 10 uM by MTT assay; format: functional
HCC1954 [33] = assay: Anti-tumor activity against HER2-amplified human HCC1954 cells xenografted in NOD/SCID mouse assessed as tumor size at 10 mg/kg, ip administered once daily for 18 days measured after 1 hr last dose (reference value: 497 +/- 82 mm3); format: functional

Cyclin-dependent kinase 5/CDK5 activator 1 (Homo sapiens), sequence (Q00535 whole entry): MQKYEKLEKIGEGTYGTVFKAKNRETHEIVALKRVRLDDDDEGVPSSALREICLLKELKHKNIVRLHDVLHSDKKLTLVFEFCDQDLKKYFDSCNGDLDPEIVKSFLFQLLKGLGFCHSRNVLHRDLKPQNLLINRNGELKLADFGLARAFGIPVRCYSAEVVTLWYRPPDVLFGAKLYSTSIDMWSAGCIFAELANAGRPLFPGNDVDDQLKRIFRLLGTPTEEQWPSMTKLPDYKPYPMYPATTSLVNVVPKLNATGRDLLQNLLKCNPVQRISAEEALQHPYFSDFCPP
Cyclin-dependent kinase 5/CDK5 activator 1 (Homo sapiens), sequence (Q15078 99-307 partner limits assumed): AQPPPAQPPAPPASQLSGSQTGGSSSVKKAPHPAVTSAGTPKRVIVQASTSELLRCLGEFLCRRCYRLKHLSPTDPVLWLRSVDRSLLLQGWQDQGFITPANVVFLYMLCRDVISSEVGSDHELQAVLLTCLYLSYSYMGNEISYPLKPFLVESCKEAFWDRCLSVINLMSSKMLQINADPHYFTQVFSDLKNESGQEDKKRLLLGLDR
Phosphatidylinositol 4,5-bisphosphate 3-kinase catalytic subunit alpha isoform, sequence (P42336 whole entry, the tested form may be a part, canonical isoform): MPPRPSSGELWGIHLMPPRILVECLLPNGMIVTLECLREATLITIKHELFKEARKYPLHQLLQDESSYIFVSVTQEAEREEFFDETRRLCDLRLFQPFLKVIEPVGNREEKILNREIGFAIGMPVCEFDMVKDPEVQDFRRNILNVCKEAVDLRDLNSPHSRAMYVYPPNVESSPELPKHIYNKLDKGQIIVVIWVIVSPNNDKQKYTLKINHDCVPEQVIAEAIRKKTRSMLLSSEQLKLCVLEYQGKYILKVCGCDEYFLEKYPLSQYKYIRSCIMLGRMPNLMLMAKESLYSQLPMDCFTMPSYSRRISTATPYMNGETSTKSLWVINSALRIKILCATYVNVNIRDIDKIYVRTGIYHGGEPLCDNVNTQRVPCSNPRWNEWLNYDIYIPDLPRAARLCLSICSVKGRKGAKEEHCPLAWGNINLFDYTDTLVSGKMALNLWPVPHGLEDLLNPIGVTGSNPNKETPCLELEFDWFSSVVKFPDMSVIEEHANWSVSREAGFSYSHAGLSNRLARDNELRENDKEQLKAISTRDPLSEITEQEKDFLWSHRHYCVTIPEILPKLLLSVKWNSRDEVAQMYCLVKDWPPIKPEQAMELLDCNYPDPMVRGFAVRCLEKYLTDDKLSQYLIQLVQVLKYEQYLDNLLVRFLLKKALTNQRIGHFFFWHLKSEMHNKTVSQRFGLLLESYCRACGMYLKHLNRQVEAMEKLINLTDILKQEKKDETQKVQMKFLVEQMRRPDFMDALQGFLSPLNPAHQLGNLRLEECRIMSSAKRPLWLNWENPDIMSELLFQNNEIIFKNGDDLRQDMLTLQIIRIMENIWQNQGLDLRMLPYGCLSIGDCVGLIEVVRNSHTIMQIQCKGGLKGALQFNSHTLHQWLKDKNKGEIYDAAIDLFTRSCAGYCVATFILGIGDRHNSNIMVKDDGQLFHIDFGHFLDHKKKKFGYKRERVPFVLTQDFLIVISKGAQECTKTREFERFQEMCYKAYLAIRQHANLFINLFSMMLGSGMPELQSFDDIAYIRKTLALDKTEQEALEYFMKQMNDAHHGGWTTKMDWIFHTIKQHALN
Mast/stem cell growth factor receptor Kit (Homo sapiens), sequence (P10721 whole entry): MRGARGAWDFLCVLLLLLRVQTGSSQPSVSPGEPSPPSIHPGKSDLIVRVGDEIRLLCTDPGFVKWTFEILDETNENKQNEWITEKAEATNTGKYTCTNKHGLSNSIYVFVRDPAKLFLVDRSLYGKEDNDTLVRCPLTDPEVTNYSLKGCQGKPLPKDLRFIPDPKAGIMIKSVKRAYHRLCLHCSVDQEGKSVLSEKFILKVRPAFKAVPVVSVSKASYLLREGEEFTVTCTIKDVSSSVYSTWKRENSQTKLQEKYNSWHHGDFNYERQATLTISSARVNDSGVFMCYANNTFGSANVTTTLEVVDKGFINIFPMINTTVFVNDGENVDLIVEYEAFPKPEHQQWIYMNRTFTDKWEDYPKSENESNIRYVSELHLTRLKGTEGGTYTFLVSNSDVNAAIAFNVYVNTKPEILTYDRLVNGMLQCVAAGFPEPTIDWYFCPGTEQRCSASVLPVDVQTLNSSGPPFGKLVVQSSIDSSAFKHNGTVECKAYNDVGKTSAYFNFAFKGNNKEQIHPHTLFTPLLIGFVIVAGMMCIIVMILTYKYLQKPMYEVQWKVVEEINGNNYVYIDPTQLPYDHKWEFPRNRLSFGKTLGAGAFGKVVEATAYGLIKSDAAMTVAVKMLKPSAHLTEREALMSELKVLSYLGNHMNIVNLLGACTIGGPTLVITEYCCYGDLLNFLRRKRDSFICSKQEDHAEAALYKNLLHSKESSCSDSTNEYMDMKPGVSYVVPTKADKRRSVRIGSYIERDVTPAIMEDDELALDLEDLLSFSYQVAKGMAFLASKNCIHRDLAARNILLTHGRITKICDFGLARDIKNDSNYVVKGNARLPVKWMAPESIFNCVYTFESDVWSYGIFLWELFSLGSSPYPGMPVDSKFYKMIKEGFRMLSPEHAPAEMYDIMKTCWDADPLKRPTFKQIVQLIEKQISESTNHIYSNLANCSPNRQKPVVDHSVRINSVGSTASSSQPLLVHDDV
Receptor-type tyrosine-protein kinase FLT3 (Homo sapiens), sequence (P36888 whole entry, the tested form may be a part): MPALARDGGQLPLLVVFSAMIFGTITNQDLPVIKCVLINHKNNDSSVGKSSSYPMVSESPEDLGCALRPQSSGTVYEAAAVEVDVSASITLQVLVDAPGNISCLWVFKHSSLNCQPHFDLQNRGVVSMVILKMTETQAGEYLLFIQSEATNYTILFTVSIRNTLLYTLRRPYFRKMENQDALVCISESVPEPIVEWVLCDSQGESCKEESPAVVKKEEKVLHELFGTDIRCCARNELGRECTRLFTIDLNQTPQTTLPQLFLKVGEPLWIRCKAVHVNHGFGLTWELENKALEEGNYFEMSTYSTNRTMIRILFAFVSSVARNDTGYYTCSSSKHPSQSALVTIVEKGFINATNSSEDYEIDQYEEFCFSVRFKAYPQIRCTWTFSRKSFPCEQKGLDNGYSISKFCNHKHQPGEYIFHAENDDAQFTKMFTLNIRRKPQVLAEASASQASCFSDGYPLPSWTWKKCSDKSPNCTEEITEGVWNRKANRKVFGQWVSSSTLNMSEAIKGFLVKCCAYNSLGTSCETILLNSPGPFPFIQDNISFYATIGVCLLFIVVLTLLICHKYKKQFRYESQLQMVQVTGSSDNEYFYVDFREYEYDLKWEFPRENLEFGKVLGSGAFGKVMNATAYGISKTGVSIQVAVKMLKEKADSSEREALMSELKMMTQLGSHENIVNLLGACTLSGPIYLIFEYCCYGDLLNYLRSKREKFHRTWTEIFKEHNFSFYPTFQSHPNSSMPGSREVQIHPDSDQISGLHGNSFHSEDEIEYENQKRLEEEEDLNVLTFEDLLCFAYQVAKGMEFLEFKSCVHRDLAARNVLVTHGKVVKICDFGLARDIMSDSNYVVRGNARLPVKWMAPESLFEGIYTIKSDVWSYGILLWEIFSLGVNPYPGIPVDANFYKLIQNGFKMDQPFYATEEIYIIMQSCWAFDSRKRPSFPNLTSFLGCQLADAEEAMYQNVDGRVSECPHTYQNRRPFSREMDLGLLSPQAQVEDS
Vascular endothelial growth factor receptor 2 (Homo sapiens), sequence (P35968 whole entry): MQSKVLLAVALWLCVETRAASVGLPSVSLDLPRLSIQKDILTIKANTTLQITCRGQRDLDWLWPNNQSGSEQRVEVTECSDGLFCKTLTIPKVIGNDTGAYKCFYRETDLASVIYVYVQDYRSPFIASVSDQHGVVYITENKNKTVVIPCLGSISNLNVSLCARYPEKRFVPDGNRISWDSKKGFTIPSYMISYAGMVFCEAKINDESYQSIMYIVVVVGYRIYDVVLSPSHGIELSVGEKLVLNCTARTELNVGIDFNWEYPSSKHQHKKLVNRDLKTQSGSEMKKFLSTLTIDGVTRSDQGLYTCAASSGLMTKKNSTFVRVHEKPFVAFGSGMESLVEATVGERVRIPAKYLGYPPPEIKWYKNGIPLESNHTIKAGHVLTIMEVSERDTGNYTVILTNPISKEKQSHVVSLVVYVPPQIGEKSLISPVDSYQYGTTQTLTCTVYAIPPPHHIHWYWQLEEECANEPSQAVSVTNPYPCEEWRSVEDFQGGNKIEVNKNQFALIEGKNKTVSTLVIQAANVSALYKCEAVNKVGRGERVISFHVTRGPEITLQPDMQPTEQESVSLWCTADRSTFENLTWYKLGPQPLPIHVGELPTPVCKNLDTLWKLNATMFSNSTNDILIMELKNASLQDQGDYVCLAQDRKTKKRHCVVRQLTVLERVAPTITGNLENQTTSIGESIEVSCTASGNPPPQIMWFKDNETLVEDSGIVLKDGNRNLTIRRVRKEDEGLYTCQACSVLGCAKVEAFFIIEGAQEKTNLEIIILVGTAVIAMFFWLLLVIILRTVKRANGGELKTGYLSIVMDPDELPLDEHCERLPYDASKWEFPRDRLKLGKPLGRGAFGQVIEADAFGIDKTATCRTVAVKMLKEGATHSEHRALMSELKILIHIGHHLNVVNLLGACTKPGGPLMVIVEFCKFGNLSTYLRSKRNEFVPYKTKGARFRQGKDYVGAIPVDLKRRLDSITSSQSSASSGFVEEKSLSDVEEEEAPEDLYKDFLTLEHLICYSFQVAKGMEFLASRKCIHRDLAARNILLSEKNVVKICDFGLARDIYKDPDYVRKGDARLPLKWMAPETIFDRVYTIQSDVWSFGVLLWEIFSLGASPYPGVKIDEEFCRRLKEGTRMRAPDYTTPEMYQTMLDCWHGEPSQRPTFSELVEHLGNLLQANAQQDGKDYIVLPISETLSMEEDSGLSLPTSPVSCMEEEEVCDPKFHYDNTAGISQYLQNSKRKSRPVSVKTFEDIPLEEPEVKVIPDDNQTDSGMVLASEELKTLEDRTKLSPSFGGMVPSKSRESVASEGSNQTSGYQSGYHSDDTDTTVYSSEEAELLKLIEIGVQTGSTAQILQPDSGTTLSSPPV

For `Cc1nc2nc(Sc3ccccc3)cnc2cc1NC(=O)c1ccccc1`, which Activity (MCF7 [1]) is on record?
Its Activity is greater than 50%.

And the inhibition [2]?
Its inhibition is “inactive”.

And the inhibition [3]?
The inhibition was “inactive”.

And the inhibition [4]?
The inhibition was “inactive”.

What about the inhibition [5] of the same compound?
The inhibition was “inactive”.

What about the AUC(0-t) at 8 h [6] of the same compound?
The AUC(0-t) at 8 h was 0.57 µM·h.

What about the Activity (Mus musculus [7]) of the same compound?
Its Activity is “Non-Toxic”.

What about the Activity (Mus musculus [8]) of the same compound?
The Activity was “Non-Toxic”.

What about the Activity (MDA-MB-231 [9]) of the same compound?
The Activity was greater than 50%.

And the Activity (HCC1954 [10])?
Its Activity is greater than 50%.

And the Cmax [11]?
Its Cmax is 520 nM.

And the IC50 (SK-BR-3)?
The IC50 was 3700 nM.

And the inhibition [12]?
Its inhibition is “inactive”.

And the inhibition [13]?
The inhibition was “inactive”.

And the Activity (MCF7 [14])?
Its Activity is greater than 50%.

And the Tmax [15]?
Its Tmax is 30 min.

What about the inhibition [16] of the same compound?
The inhibition was “inactive”.

What about the Activity (T47D [17]) of the same compound?
Its Activity is greater than 50%.

And the IC50 (MCF7 [18])?
Its IC50 is 4000 nM.

What about the inhibition [19] of the same compound?
The inhibition was “inactive”.

And the Tmax [20]?
Its Tmax is 15 min.

And the inhibition [21]?
Its inhibition is “inactive”.

What about the IC50 (HCC1954 [22]) of the same compound?
The IC50 was 4500 nM.

What about the inhibition [23] of the same compound?
Its inhibition is “inactive”.

And the AUC(0-t) at 8 h [24]?
Its AUC(0-t) at 8 h is 0.43 µM·h.

And the Cmax [25]?
The Cmax was 320 nM.

And the IC50 (T47D [26])?
Its IC50 is 1500 nM.

And the Activity (T47D [27])?
The Activity was greater than 50%.

And the IC50 (MDA-MB-231 [28])?
Its IC50 is 4000 nM.

And the inhibition [29]?
Its inhibition is “inactive”.

What about the inhibition (Sus scrofa) of the same compound?
Its inhibition is “inactive”.

And the Activity (HCC1954 [30])?
Its Activity is greater than 50%.

What about the inhibition [31] of the same compound?
Its inhibition is “inactive”.

What about the Activity (MDA-MB-231 [32]) of the same compound?
Its Activity is greater than 50%.

Which Activity (HCC1954 [33]) does the source give for `CS(=O)(=O)N1CCN(Cc2cc3nc(-c4cccc5[nH]ncc45)nc(N4CCOCC4)c3s2)CC1` [PICTILISIB] here?
Its Activity is 350 mm3.

What about the IC50 (SK-BR-3) of the same compound?
Its IC50 is 900 nM.

What about the IC50 (MCF7 [18]) of the same compound?
Its IC50 is 2000 nM.

What about the IC50 (HCC1954 [22]) of the same compound?
The IC50 was 1300 nM.

What about the IC50 (T47D [26]) of the same compound?
Its IC50 is 1200 nM.

What about the IC50 (MDA-MB-231 [28]) of the same compound?
Its IC50 is greater than 30000 nM.
